{"source": "patent US20120282346A1", "about": "“BRIMONIDINE COMPOSITIONS FOR TREATING ERYTHEMA” (priority 2007, published 2012)", "system": "erythema", "settings": "high dosage gel (0.20% by weight brimonidine tartrate), applied topically each day for 28 days; across all visits (days 1, 14, 28), evaluated up to eight hours; patients with moderate to severe erythema; p<0.001", "procedure": "A double-blind, placebo-controlled study was conducted at six centers of 110 patients with moderate to severe erythema. […] On days 1, 14, and 28, patients applied the gel under the supervision of clinical staff in the study centers, and were evaluated at set intervals for up to eight hours.\nEvaluation led to a Clinician's Erythema Assessment Score (CEA). Each patients' erythema was rated on a scale from 0 to 4, with 0 being the rating for no erythema and 4 being the rating for extreme erythema.\nAlso, a side effect profile was established."}
{"smiles": "Brc1c(N=C2NCCN2)ccc2nccnc12.O=C(O)C(O)C(O)C(=O)O", "note": "[brimonidine tartrate, 5-bromo-6-(2-imidazolidinylideneamino) quinoxaline L-tartrate]", "values": [{"measurement": "reduction in the average CEA (Clinician's Erythema Assessment Score, scale 0 to 4)", "result": "statistically significant reduction"}]}
